Assay results: ChEMBL document CHEMBL3632590, “Development of Safe and Effective Botanical Dietary Supplements” (J Med Chem, 2015)

Tests used:
Cytochrome P450 2D6 = Cytochrome P450 2D6 (Homo sapiens, UniProt P10635); test: Competitive inhibition of CYP2D6 (unknown origin) using dextromethorphan substrate; type: ADME
[1] = Terminal half life in orally dosed human by LC-MS/MS method; type: ADME, organism-based; details: in vivo, po, read-out: beta t1/2
[2] = Oral bioavailability in human; type: ADME, organism-based; details: in vivo
[3] = Terminal half life in human at 60 mg, po by LC-MS/MS method; type: ADME, organism-based; details: in vivo, read-out: beta t1/2 (converted)

Cytochrome P450 2D6, sequence (P10635 whole entry): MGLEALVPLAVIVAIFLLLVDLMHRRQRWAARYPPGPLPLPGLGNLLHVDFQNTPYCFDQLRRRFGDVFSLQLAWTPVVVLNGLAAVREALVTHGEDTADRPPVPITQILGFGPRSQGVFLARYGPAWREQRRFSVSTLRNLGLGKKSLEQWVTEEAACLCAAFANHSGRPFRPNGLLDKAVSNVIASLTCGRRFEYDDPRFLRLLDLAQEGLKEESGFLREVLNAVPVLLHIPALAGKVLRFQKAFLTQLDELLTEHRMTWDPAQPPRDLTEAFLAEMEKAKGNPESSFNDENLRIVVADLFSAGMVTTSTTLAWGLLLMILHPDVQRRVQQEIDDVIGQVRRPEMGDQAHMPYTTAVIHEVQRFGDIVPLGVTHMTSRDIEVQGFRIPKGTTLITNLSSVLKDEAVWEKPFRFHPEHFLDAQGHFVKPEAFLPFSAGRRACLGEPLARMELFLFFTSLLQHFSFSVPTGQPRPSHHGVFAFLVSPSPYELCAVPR

Row | Compound | Ki (Cytochrome P450 2D6) | half-life [1] | bioavailability [2] | half-life [3]
1 | COc1ccc2c(c1OC)CN(C)CCc1cc3c(cc1C(=O)C2)OCO3 [ALLOCRYPTOPINE] | 122 nM | – | – | –
2 | COc1cc([C@H]2Oc3cc([C@H]4Oc5cc(O)cc(O)c5C(=O)[C@@H]4O)ccc3O[C@@H]2CO)ccc1O [SILYBIN A] | – | < 2 h | < 0.5% | –
3 | COc1cc([C@@H]2Oc3cc([C@H]4Oc5cc(O)cc(O)c5C(=O)[C@@H]4O)ccc3O[C@H]2CO)ccc1O [SILYBIN B] | – | < 2 h | < 0.5% | –
4 | CC(C)=CCc1c(O)cc(O)c2c1OC(c1ccc(O)cc1)CC2=O (configuration not stated) [SOPHORAFLAVANONE B] | – | – | – | 20 h
5 | COc1cc(O)c(CC=C(C)C)c(O)c1C(=O)/C=C/c1ccc(O)cc1 [XANTHOHUMOL] | – | – | – | 20 h
